For data set [1], the system named is Escherichia coli. Kind of data set: Antibacterial activity against intact Escherichia coli DH5alpha expressing wild-type tetracycline efflux transporter TetA(B) gene. The data set is classed as functional.
Data set [2] concerns Escherichia coli. The experiment in a line: Antibacterial activity against intact Escherichia coli DH5alpha expressing tetracycline efflux transporter TetA(B) Asp190Cys mutant gene. The data set is classed as functional.
Data set [3] relates to Escherichia coli. The experiment in a line: Antibacterial activity against intact Escherichia coli DH5alpha. The data set is classed as functional.
Substrate in data set [4]: CN(C)[C@@H]1C(O)=C(C(N)=O)C(=O)[C@@]2(O)C(O)=C3C(=O)c4c(O)cccc4[C@@](C)(O)[C@H]3C[C@@H]12
The experiment in a line: Activity of tetracycline efflux transporter TetA(B) in Escherichia coli DH5alpha membrane vesicles assessed as [3H]tetracycline uptake per mg of protein. The data set is classed as cell membranes.

Substrate in data set [5]: CN(C)[C@@H]1C(O)=C(C(N)=O)C(=O)[C@@]2(O)C(O)=C3C(=O)c4c(O)cccc4[C@@](C)(O)[C@H]3C[C@@H]12
The experiment in a line: Activity of tetracycline efflux transporter TetA(B) in Escherichia coli DH5alpha membrane vesicles assessed as [3H]tetracycline uptake. The data set is classed as cell membranes.

Substrate in data set [6]: CN(C)[C@@H]1C(O)=C(C(N)=O)C(=O)[C@@]2(O)C(O)=C3C(=O)c4c(O)cccc4[C@@](C)(O)[C@H]3C[C@@H]12
Kind of data set: Activity of tetracycline efflux transporter TetA(B) Asp190Cys mutant in Escherichia coli DH5alpha membrane vesicles assessed as [3H]tetracycline uptake. The data set is classed as cell membranes.

Substrate in data set [7]: CN(C)[C@@H]1C(O)=C(C(N)=O)C(=O)[C@@]2(O)C(O)=C3C(=O)c4c(O)cccc4[C@@](C)(O)[C@H]3C[C@@H]12
Kind of data set: Activity of tetracycline efflux transporter TetA(B) Asp190Cys mutant in Escherichia coli DH5alpha membrane vesicles assessed as [3H]tetracycline uptake per mg of protein. The data set is classed as cell membranes.

Residue numbers refer to the chain shown, from its start. Names may count otherwise. Converted amounts (≈) assume the structure as drawn.

As for `CN(C)[C@@H]1C(O)=C(C(N)=O)C(=O)[C@@]2(O)C(O)=C3C(=O)c4c(O)cccc4[C@@](C)(O)[C@H]3C[C@@H]12` [TETRACYCLINE], the results for the MIC in the data set with Escherichia coli [1], in the data set on Escherichia coli [2] and with Escherichia coli [3] were 128 µg/mL (≈ 288 µM), 11 µg/mL (≈ 24.8 µM) and 0.75 µg/mL (≈ 1.69 µM), respectively.

With `C[C@H]1c2cccc(O)c2C(=O)C2=C(O)[C@]3(O)C(=O)C(C(N)=O)=C(O)[C@@H](N(C)C)[C@@H]3[C@@H](O)[C@@H]21.O` [DOXYCYCLINE], the MIC in the data set with Escherichia coli [1] came to 32 µg/mL; in the data set with Escherichia coli [2] it was 14 µg/mL; in the data set on Escherichia coli [3], 1.25 µg/mL.

B1: Tetracycline resistance protein, class B (Escherichia coli), P02980 (protein)
chain: MNSSTKIALVITLLDAMGIGLIMPVLPTLLREFIASEDIANHFGVLLALYALMQVIFAPWLGKMSDRFGRRPVLLLSLIGASLDYLLLAFSSALWMLYLGRLLSGITGATGAVAASVIADTTSASQRVKWFGWLGASFGLGLIAGPIIGGFAGEISPHSPFFIAALLNIVTFLVVMFWFRETKNTRDNTDTEVGVETQSNSVYITLFKTMPILLIIYFSAQLIGQIPATVWVLFTENRFGWNSMMVGFSLAGLGLLHSVFQAFVAGRIATKWGEKTAVLLGFIADSSAFAFLAFISEGWLVFPVLILLAGGGIALPALQGVMSIQTKSHQQGALQGLLVSLTNATGVIGPLLFAVIYNHSLPIWDGWIWIIGLAFYCIIILLSMTFMLTPQAQGSKQETSA
Regarding B1, the Vmax in data set [4] is 1270 pmol/min. Moreover, the Km in data set [5] is 22 µM.

B2: Tetracycline resistance protein, class B (Escherichia coli), P02980 D190C (protein)
chain: B1 chain with D190C
Take B2: the Michaelis-Menten constant (Km) in data set [6] was 83 µM. The Vmax in data set [7] turned out to be 1330 pmol/min.
